“Also recorded” adds a separate entry of the source.
Legend:
LAT1 = LAT1 (Homo sapiens, UniProt Q01650); details: supplier description; cited from earlier work
SLC7A5 = biological target: T1, SLC7A5 (Mus musculus, UniProt Q9Z127); assay: Uptake of 13C-labelled phenylalanine by naive CD4+ T cells; type: cell-based; details: 0.5 h incubation
T1 construct: endogenous in cells; host or cells: naive CD4+ T cells from splenocytes of C57BL/6 mice (Th0 / IL-12-induced Th1)
Description: Uptake of phenylalanine. Naive CD4^+ T cells were separated from the splenocytes of 8-month-old C57BL/6 female mice using the Naive CD4^+ T cell Isolation Kit (Stem Cell, Cat No. 19765) and were induced to Th1 differentiation by 20 ng/mL IL-12. After 3 days, a total of 5×10^5 cells/well Th1 cells and Th0 cells in 0.5 mL of RPMI-1640 medium were plated into 48-well plates. ^13C-labelled phenylalanine and 5 mM amino transporter inhibitor BCH were added into indicated wells. After 0.5 h, cells were collected and washed twice with ice-cold D-PBS. 50 μL deionized water was added and cells were lysed through freezing and thawing twice at −80° C. The cell lysate was centrifuged at 12000×g for 10 min and ^13C-labelled phenylalanine in the supernatant was analyzed by Mass spectrometry.

[1] = tested on: 5×FAD transgenic (Tg) mice; assay: Flow cytometry of Th1 cells and M1 microglia in brain homogenate; type: in vivo, mouse; details: 6-month-old 5×FAD mice, 50 mg/kg intraperitoneal every day for one month, versus vehicle
Description: Animals. […] Mice were randomly assigned to different groups before treatment. […] The mouse brain was collected and stained for immune cell analysis and cytokine analysis. […] For OM1 treatment, at the age of 6.5 months, based on 450 mg b.i.d. (twice a day) in the phase III trial, Tg mice were treated with 100 mg/kg OM1 by oral administration once a day for one month. […] The brains and feces of the mice were then used for different analyses.
Flow cytometry sample preparation and analysis. Mice were anesthetized, blood samples were collected into EDTA-containing tubes, and red blood cells were removed using 1×red blood lysis buffer. Before tissue collection, the brains were perfused with ice-cold PBS to avoid sampling the circulating blood immune cells, and the brains were removed, chopped into pieces and dissected according to the introduction of the Adult Brain Dissociation Kit (Miltenyi, Cat No. 130-107-677) using the gentleMACS dissociator (Miltenyi Biotec). The brain homogenate was filtered through a 70-μm cell strainer and centrifuged at 300×g for 5 min at 4° C. The cell pellet was resuspended in cold PBS buffer and centrifuged again at 300×g for 5 min at 4° C. All samples were counted and adjusted to a density of 2-3×10^6/100 μL, labeled with a Live/Dead kit for 30 min, and then centrifuged at 500×g for 3 min at 4° C. The cells were resuspended in 100 μL PBS buffer, blocked with anti-CD16/32 (Biolegend, Cat No. 101320) for 10 min, and incubated with the antibody according to the manufacturers' protocols at 4° C. for 30 min. […]

naive CD4+ T cells = assay: In vitro differentiation and proliferation induced by phenylalanine and isoleucine; type: cell-based, mouse; details: amino acid added directly to naive CD4+ T cell culture; for Th1 cell proliferation: CellTrace
Description: In Vitro differentiation and proliferation induced by phenylalanine and isoleucine. Naive CD4^+ T cells were separated from the splenocytes of 8-month-old C57BL/6 female mice using the Naive CD4^+ T cell Isolation Kit (Stem Cell, #19765), and the cells were stained with CellTrace (Thermo Fisher, #C34557). A total of 1×10^5 cells/well in 0.2 mL of RPMI-1640 medium were plated in 96-well plates, and the culture medium was supplemented with cytokines or blocking antibodies. Th0: 10 ng/mL mIL-2; Th1:10 ng/mL mIL-2, 5000 ng/mL 11B11. Phenylalanine (final concentration, 2 mmol/L), isoleucine (final concentration, 2 mmol/L) and OM1 (final concentration, 100 μg/mL) were added into the indicated wells, respectively. After incubation at 37° C. in 5% CO2 for 5 days, cells were acquired on a BD Fortessa cytometer, and data were analyzed using FlowJo software.

C57 mice = assay: Intraperitoneal injection of phenylalanine and isoleucine, blood Th1 cells by FACS; type: in vivo, mouse; details: WT mice, intraperitoneal injection 50 mg/kg for 4 days
Description: Animals. Tg mice and co-housed WT mice (corresponding WT mice generated by mating Tg mice and C57 mice) were housed in the same cage after birth. WT mice (C57) were housed in separate cages to avoid cross-transfer of microbiota. All mice were kept in a 23° C. room with a 12-hour (h) light-dark cycle. Mice were randomly assigned to different groups before treatment. For time course analysis of Tg mice, male and female Tg mice were sacrificed at 2, 3, 5, 7 and 9 months of age. The mouse brain was collected and stained for immune cell analysis and cytokine analysis. Before the mice were sacrificed, feces were collected for gut microbiota analysis. For OM1 treatment, at the age of 6.5 months, based on 450 mg b.i.d. (twice a day) in the phase III trial, Tg mice were treated with 100 mg/kg OM1 by oral administration once a day for one month. Behavioral tests were performed to monitor cognitive activity after the last treatment. […] All mouse movements that occur in PhenoTyper (HomeCage) are recorded by a computerized tracking system, which calculates the time and number of entrances required to reach 80% of the performance standard (Noldus, Ethovision). […]
Flow cytometry sample preparation and analysis. […] All samples were counted and adjusted to a density of 2-3×10^6/100 μL, labeled with a Live/Dead kit for 30 min, and then centrifuged at 500×g for 3 min at 4° C. […]

LAT1, sequence (Q01650 whole entry, species assumed): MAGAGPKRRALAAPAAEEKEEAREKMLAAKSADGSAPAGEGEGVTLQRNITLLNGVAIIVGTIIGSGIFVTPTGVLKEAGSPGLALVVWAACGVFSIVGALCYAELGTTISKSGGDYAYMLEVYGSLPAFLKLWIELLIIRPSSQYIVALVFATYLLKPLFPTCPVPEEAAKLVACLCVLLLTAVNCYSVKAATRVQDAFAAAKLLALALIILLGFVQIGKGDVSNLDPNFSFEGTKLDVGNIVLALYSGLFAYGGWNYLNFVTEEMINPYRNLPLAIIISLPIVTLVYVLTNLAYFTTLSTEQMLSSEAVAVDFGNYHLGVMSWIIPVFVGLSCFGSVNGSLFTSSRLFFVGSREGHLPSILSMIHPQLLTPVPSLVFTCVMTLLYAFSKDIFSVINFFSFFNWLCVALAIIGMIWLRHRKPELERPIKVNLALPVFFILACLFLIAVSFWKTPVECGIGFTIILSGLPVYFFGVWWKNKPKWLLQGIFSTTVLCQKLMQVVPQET
LAT1, sequence (P08195 102-630 partner, species assumed): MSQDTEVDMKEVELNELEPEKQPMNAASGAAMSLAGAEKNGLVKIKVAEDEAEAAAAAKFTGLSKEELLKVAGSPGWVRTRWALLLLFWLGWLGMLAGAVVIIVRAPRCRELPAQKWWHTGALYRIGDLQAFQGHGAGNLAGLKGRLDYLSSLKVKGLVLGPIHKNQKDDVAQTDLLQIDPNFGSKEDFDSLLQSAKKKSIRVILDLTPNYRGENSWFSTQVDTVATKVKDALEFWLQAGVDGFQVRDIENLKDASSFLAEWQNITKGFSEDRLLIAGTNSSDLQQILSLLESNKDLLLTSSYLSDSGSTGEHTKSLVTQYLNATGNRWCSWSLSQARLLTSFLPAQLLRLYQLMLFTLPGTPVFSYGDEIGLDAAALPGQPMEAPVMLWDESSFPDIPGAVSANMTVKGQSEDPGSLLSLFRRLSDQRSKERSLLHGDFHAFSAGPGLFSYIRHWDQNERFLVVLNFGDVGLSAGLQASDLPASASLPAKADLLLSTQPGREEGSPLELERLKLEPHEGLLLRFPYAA
T1 sequence (Q9Z127 whole entry): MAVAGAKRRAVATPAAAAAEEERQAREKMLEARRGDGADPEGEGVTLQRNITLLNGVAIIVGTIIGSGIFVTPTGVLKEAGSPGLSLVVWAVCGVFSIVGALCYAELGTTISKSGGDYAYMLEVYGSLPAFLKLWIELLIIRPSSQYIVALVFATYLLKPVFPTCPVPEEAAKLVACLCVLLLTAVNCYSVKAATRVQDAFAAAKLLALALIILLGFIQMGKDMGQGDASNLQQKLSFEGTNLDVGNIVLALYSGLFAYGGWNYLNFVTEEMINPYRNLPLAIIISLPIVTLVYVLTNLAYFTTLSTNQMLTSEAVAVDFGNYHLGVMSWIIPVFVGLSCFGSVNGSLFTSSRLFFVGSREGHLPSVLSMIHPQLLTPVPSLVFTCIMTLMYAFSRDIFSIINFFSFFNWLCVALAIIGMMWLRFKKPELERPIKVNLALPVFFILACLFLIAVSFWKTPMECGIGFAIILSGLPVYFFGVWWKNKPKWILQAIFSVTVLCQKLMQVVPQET
T1 sequence (P10852 whole entry partner): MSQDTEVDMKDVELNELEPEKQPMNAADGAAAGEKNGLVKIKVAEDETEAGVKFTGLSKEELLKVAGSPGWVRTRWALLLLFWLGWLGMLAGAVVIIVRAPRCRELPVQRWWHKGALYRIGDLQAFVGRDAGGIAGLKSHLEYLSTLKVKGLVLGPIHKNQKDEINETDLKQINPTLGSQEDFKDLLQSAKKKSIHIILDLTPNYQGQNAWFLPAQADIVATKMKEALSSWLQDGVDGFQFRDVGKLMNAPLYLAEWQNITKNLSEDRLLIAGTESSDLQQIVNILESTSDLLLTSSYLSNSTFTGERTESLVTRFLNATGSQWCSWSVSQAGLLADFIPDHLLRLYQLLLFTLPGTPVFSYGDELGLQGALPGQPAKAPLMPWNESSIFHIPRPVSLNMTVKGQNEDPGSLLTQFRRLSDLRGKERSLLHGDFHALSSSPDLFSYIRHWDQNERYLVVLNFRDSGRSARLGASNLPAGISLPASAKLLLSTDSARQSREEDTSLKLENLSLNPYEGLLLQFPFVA

Nc1cc(COc2c(Cl)cc(C[C@H](N)C(=O)O)cc2Cl)c2oc(-c3ccccc3)nc2c1 [JPH 203]
LAT1 selectivity (LAT1): selectively inhibits LAT1
uptake of 13C-labelled phenylalanine by CD4+ T cells (SLC7A5): blocked
proportion of pro-inflammatory Th1 cells in the mouse brain ([1]; 50 mg/kg): significantly reduces the proportion of Th1 cells in the mouse brain
proportion of pro-inflammatory Th1 cells in the mouse brain ([1]; listed as JPH203, 50 mg/kg): effectively inhibits the proportion of Th1 cells in the brain; also recorded: significantly downregulated the proportion of pro-inflammatory Th1 cells in the mouse brain

CC[C@H](C)[C@H](N)C(=O)O [isoleucine]
Th0 cell differentiation into Th1 cells (naive CD4+ T cells): increased
Th1 cell proliferation (naive CD4+ T cells): increased
Th1 cell count in the blood (C57 mice): increased significantly

N[C@@H](Cc1ccccc1)C(=O)O [phenylalanine]
Th0 cell differentiation into Th1 cells (naive CD4+ T cells): increased
Th1 cell proliferation (naive CD4+ T cells): increased
Th1 cell count in the blood (C57 mice): increased significantly

Source: patent US20220273598A1, “METHOD FOR TREATING ALZHEIMER'S DISEASE BY INHIBITING UPTAKE OF AMINO ACIDS BY T CELLS” (SHANGHAI GREEN VALLEY PHARMACEUTICAL CO., LTD., priority 2019, published 2022)
